pIC50: −log10 of the molar value. Bounds are passed on as bounds.

In one assay the test system is STING (IRF pathway reporter in THP1-Dual™ cells, THP-1 (HAQ)). In words: Reporter gene expression assay in THP-1 cells (THP1-Dual, IRF pathway Lucia luciferase, 2′,3′-cGAMP stimulation). It counts as cell-based, human. The following applies: 10 min preincubation, 5 μM 2′,3′-cGAMP, 20 hr, IRF pathway luciferase (QUANTI-Luc), IC50 range class. The method, then:
THP1-Dual™ cells (Invivogen) were derived from the human THP-1 monocyte cell line by stable integration of two inducible reporter constructs. As a result, THP1-Dual™ cells allow the simultaneous study of the IRF pathway, by assessing the activity of a secreted luciferase (Lucia) and the NF-κB pathway, by monitoring the activity of secreted SEAP. 5×10^4 THP1-Dual™ cells were seeded in 384-well plates in growth medium and preincubated with novel compounds for 10 minutes followed by stimulation with 5 μM 2′,3′-cGAMP. After 20 hr of stimulation the supernatant was removed and the IRF pathway reporter protein was readily measured in the cell culture supernatant using QUANTI-Luc™ (Invivogen), a luciferase detection reagent on a Spectramax i3X luminometer.
In the tables below, IC50 value ranges for exemplary compounds are given. The IC50 ranges are indicated as “A” for values less than or equal to 1 μM, “B” for values greater than 1 μM and less than or equal to 10 μM, and “C” for values greater than 10 μM.
Turning to `CN(C)C(=O)CC(NC(=O)Nc1ccc2cc[nH]c2c1)c1ccc2c(c1)N(Cc1ccccc1)CCS2` (single isomer, unassigned) [Example 6, 3-(3-(1H-indol-6-yl)ureido)-3-(4-benzyl-3,4-dihydro-2H-benzo[b][1,4]thiazin-6-yl)-N,N-dimethylpropanamide], the negative-log IC50 (pIC50) is 5.00 to 6.00.

Turning to `O=C(Nc1ccc2cc[nH]c2c1)NC(CC(O)CO)c1ccc2c(c1)N(Cc1ccccc1)CCO2` (single isomer, unassigned) [Example 8, 1-(1-(4-Benzyl-3,4-dihydro-2H-benzo[b][1,4]oxazin-6-yl)-3,4-dihydroxybutyl)-3-(1H-indol-6-yl)urea], the pIC50 was below 5.00.

On to `O=C(Nc1ccc2cc[nH]c2c1)NC(CO)c1ccc2c(c1)N(Cc1ccccc1)CCS2` (single isomer, unassigned) [Example 13, 1-(1-(4-benzyl-3,4-dihydro-2H-benzo[b][1,4]thiazin-6-yl)-2-hydroxyethyl)-3-(1H-indol-6-yl)urea], for which the negative logarithm of the IC50 (pIC50) is at least 6.00.

The assay is the same for the next values; noted with them: Homo sapiens, 10 min preincubation, 5 μM 2′,3′-cGAMP, 20 hr, IRF pathway luciferase (QUANTI-Luc), IC50 range class.
Turning to `CN(C)C(=O)CC(NC(=O)Nc1ccc2cc[nH]c2c1)c1ccc2c(c1)N(Cc1ccccc1)CCS2` (racemic) [Example 4, 3-(3-(1H-indol-6-yl)ureido)-3-(4-benzyl-3,4-dihydro-2H-benzo[b][1,4]thiazin-6-yl)-N,N-dimethylpropanamide], the pIC50 was 5.00 to 6.00.

For the molecule `O=C(Nc1ccc2cc[nH]c2c1)NC(CO)c1ccc2c(c1)N(Cc1ccccc1)CCS2` (racemic) [Example 11, 1-(1-(4-Benzyl-3,4-dihydro-2H-benzo[b][1,4]thiazin-6-yl)-2-hydroxyethyl)-3-(1H-indol-6-yl)urea], the pIC50 is at least 6.00.

On to `CN(C)C(=O)CC(NC(=O)Nc1ccc2cc[nH]c2c1)c1ccc2c(c1)N(Cc1ccccc1)CCS2` (single isomer, unassigned) [Example 5, 3-(3-(1H-indol-6-yl)ureido)-3-(4-benzyl-3,4-dihydro-2H-benzo[b][1,4]thiazin-6-yl)-N,N-dimethylpropanamide], for which the pIC50 was 5.00 to 6.00.

Consider `O=C(Nc1ccc2cc[nH]c2c1)NC(CC(O)CO)c1ccc2c(c1)N(Cc1ccccc1)CCO2` (single isomer, unassigned) [Example 7, 1-(1-(4-Benzyl-3,4-dihydro-2H-benzo[b][1,4]oxazin-6-yl)-3,4-dihydroxybutyl)-3-(1H-indol-6-yl)urea], for which the negative-log IC50 (pIC50) was below 5.00.

Regarding `O=C(Nc1ccc2cc[nH]c2c1)NC(CO)c1ccc2c(c1)N(Cc1ccccc1)CCS2` (single isomer, unassigned) [Example 12, 1-(1-(4-benzyl-3,4-dihydro-2H-benzo[b][1,4]thiazin-6-yl)-2-hydroxyethyl)-3-(1H-indol-6-yl)urea], the negative-log IC50 (pIC50) is at least 6.00.

Molecule `O=C(NCc1ccc2c(c1)N(Cc1ccccc1)CCS2)Nc1ccc2cc[nH]c2c1` [Example 1, 1-((4-Benzyl-3,4-dihydro-2H-benzo[b][1,4]thiazin-6-yl)methyl)-3-(1H-indol-6-yl)urea] gave a negative-log IC50 (pIC50) of at least 6.00.

As for `O=C(NCc1ccc2c(c1)OCC(=O)N2Cc1ccccc1)Nc1ccc2cc[nH]c2c1` [Example 2, 1-((4-Benzyl-3-oxo-3,4-dihydro-2H-benzo[b][1,4]oxazin-7-yl)methyl)-3-(1H-indol-6-yl)urea], the pIC50 was 5.00 to 6.00.

In turn, `O=C(NCc1ccc2c(c1)OCCN2Cc1ccccc1)Nc1ccc2cc[nH]c2c1` [Example 3, 1-((4-Benzyl-3,4-dihydro-2H-benzo[b][1,4]oxazin-7-yl)methyl)-3-(1H-indol-6-yl)urea] showed a pIC50 of at least 6.00.

With `C=CCC(NC(=O)Nc1ccc2cc[nH]c2c1)c1ccc2c(c1)N(Cc1ccccc1)CCS2` (stereo not shown) [Example 9, 1-(1-(4-Benzyl-3,4-dihydro-2H-benzo[b][1,4]thiazin-6-yl)but-3-en-1-yl)-3-(1H-indol-6-yl)urea], the negative logarithm of the IC50 (pIC50) is at least 6.00.

For `O=C(O)CC(NC(=O)Nc1ccc2cc[nH]c2c1)c1ccc2c(c1)N(Cc1ccccc1)CCS2` (stereo not shown) [Example 10, 3-(3-(1H-Indol-6-yl)ureido)-3-(4-benzyl-3,4-dihydro-2H-benzo[b][1,4]thiazin-6-yl)propanoic acid], the negative logarithm of the IC50 (pIC50) is below 5.00.

Regarding `O=C(NCc1ccc2c(c1)N(c1ccccc1)CCS2)Nc1ccc2cc[nH]c2c1` [Example 14, 1-(1H-Indol-6-yl)-3-((4-phenyl-3,4-dihydro-2H-benzo[b][1,4]thiazin-6-yl)methyl)urea], the pIC50 was at least 6.00.

On to `O=C(NCc1ccc2c(c1)N(Cc1ccccc1)CCO2)Nc1ccc2cc[nH]c2c1` [Example 15, 1-((4-benzyl-3,4-dihydro-2H-benzo[b][1,4]oxazin-6-yl)methyl)-3-(1H-indol-6-yl)urea], for which the pIC50 was at least 6.00.

For the molecule `O=C(NCc1ccc2c(c1)SCCN2Cc1ccccc1)Nc1ccc2cc[nH]c2c1` [Example 16, 1-((4-benzyl-3,4-dihydro-2H-benzo[b][1,4]thiazin-7-yl)methyl)-3-(1H-indol-6-yl)urea], the pIC50 was at least 6.00.

Take `O=C(NCc1ccc2c(c1)SCC(=O)N2Cc1ccccc1)Nc1ccc2cc[nH]c2c1` [Example 17, 1-((4-benzyl-3-oxo-3,4-dihydro-2H-benzo[b][1,4]thiazin-7-yl)methyl)-3-(1H-indol-6-yl)urea]: the pIC50 is at least 6.00.

In turn, `O=C(NCc1ccc2c(c1)N(Cc1ccccc1)C(=O)CS2)Nc1ccc2cc[nH]c2c1` [Example 18, 1-((4-benzyl-3-oxo-3,4-dihydro-2H-benzo[b][1,4]thiazin-6-yl)methyl)-3-(1H-indol-6-yl)urea] had a pIC50 of 5.00 to 6.00.

For the molecule `O=C(NCc1ccc2c(c1)N(c1ccccc1)CCO2)Nc1ccc2cc[nH]c2c1` [Example 19, 1-(1H-indol-6-yl)-3-((4-phenyl-3,4-dihydro-2H-benzo[b][1,4]oxazin-6-yl)methyl)urea], the pIC50 is at least 6.00.

For `O=C(NCc1ccc2c(c1)SCCN2c1ccccc1)Nc1ccc2cc[nH]c2c1` [Example 20, 1-(1H-indol-6-yl)-3-((4-phenyl-3,4-dihydro-2H-benzo[b][1,4]thiazin-7-yl)methyl)urea], the negative logarithm of the IC50 (pIC50) was 5.00 to 6.00.

In the case of `O=C(NCc1ccc2c(c1)OCCN2c1ccccc1)Nc1ccc2cc[nH]c2c1` [Example 21, 1-(1H-indol-6-yl)-3-((4-phenyl-3,4-dihydro-2H-benzo[b][1,4]oxazin-7-yl)methyl)urea], the pIC50 was at least 6.00.

`O=C(Nc1ccc2cc[nH]c2c1)NC(CCN1CCOCC1)c1ccc2c(c1)N(Cc1ccccc1)CCS2` (stereo not shown) [Example 22, 1-(1-(4-benzyl-3,4-dihydro-2H-benzo[b][1,4]thiazin-6-yl)-3-morpholinopropyl)-3-(1H-indol-6-yl)urea]: the negative logarithm of the IC50 (pIC50) is below 5.00.

For the molecule `NC(=O)CC(NC(=O)Nc1ccc2cc[nH]c2c1)c1ccc2c(c1)N(Cc1ccccc1)CCS2` (stereo not shown) [Example 23, 3-(3-(1H-indol-6-yl)ureido)-3-(4-benzyl-3,4-dihydro-2H-benzo[b][1,4]thiazin-6-yl)propanamide], the pIC50 is at least 6.00.

Molecule `O=C(Nc1ccc2cc[nH]c2c1)NC(CCO)c1ccc2c(c1)N(Cc1ccccc1)CCS2` (stereo not shown) [Example 24, 1-(1-(4-benzyl-3,4-dihydro-2H-benzo[b][1,4]thiazin-6-yl)-3-hydroxypropyl)-3-(1H-indol-6-yl)urea] had a negative-log IC50 (pIC50) below 5.00.

In the case of `O=C(Nc1ccc2cc[nH]c2c1)NC(CC(O)CO)c1ccc2c(c1)N(Cc1ccccc1)CC[S+]2[O-]` (stereo not shown) [Example 25, 1-(1-(4-benzyl-1-oxido-3,4-dihydro-2H-benzo[b][1,4]thiazin-6-yl)-3,4-dihydroxybutyl)-3-(1H-indol-6-yl)urea], the negative-log IC50 (pIC50) is below 5.00.

The molecule `CNC(=O)CC(NC(=O)Nc1ccc2cc[nH]c2c1)c1ccc2c(c1)N(Cc1ccccc1)CCS2` (stereo not shown) [Example 26, 3-(3-(1H-indol-6-yl)ureido)-3-(4-benzyl-3,4-dihydro-2H-benzo[b][1,4]thiazin-6-yl)-N-methylpropanamide] had a pIC50 of 5.00 to 6.00.

`O=C(Nc1ccc2cc[nH]c2c1)NC(CC(=O)N1CCCC1)c1ccc2c(c1)N(Cc1ccccc1)CCS2` (stereo not shown) [Example 27, 1-(1-(4-benzyl-3,4-dihydro-2H-benzo[b][1,4]thiazin-6-yl)-3-oxo-3-(pyrrolidin-1-yl)propyl)-3-(1H-indol-6-yl)urea] showed a negative-log IC50 (pIC50) of 5.00 to 6.00.

Molecule `CON(C)C(=O)CC(NC(=O)Nc1ccc2cc[nH]c2c1)c1ccc2c(c1)N(Cc1ccccc1)CCS2` (stereo not shown) [Example 28, 3-(3-(1H-indol-6-yl)ureido)-3-(4-benzyl-3,4-dihydro-2H-benzo[b][1,4]thiazin-6-yl)-N-methoxy-N-methylpropanamide] had a pIC50 of 5.00 to 6.00.

Molecule `O=C(Nc1ccc2cc[nH]c2c1)NC(CC(=O)N1CCC(O)C1)c1ccc2c(c1)N(Cc1ccccc1)CCS2` (stereo not shown) [Example 29, 1-(1-(4-benzyl-3,4-dihydro-2H-benzo[b][1,4]thiazin-6-yl)-3-(3-hydroxypyrrolidin-1-yl)-3-oxopropyl)-3-(1H-indol-6-yl)urea] showed a pIC50 below 5.00.

For `O=C(Nc1ccc2cc[nH]c2c1)NC(CC(=O)N1CCOCC1)c1ccc2c(c1)N(Cc1ccccc1)CCS2` (stereo not shown) [Example 30, 1-(1-(4-benzyl-3,4-dihydro-2H-benzo[b][1,4]thiazin-6-yl)-3-morpholino-3-oxopropyl)-3-(1H-indol-6-yl)urea], the pIC50 is 5.00 to 6.00.

With `CN(CCO)C(=O)CC(NC(=O)Nc1ccc2cc[nH]c2c1)c1ccc2c(c1)N(Cc1ccccc1)CCS2` (stereo not shown) [Example 31, 3-(3-(1H-indol-6-yl)ureido)-3-(4-benzyl-3,4-dihydro-2H-benzo[b][1,4]thiazin-6-yl)-N-(2-hydroxyethyl)-N-methylpropanamide], the negative-log IC50 (pIC50) is 5.00 to 6.00.

These data come from patent US20240360119A1, “SMALL MOLECULE UREA DERIVATIVES AS STING ANTAGONISTS” (CURADEV PHARMA PVT. LTD., priority 2021, published 2024).
